# Measured values taken from ChEMBL document CHEMBL1201862, “PubChem BioAssay data set” (2004).
# Active and inactive are the calls of the source.
# What was measured:
# [1] = target: T1, Voltage-gated N-type calcium channel alpha-1B subunit/Amyloid beta A4 precursor protein-binding family A member 1 (Homo sapiens, UniProt Q00975+Q02410); format: protein assay
# [2] = target: T1, Voltage-gated N-type calcium channel alpha-1B subunit/Amyloid beta A4 precursor protein-binding family A member 1; format: protein assay; remark: listed apart in the source
# T-cell = assay: loss of vesicle association with mouse CD8+ T cells – mouse 2C CD8+ T cells, flow cytometry, dose response (AID 485284); format: functional
# [3] = target: T2, Kappa-type opioid receptor (Homo sapiens, UniProt P41145); assay: SAR analysis of small molecule antagonists of the kappa opioid receptor via a luminescent beta-arrestin assay - Set 3. [Related pubchem assays (depositor defined):AID1777, AID1778, AID1785, AID1786, AID1966, AID2133, AID2136, AID2285, AID2495]; format: functional
# [4] = target: T2, Kappa-type opioid receptor; assay: SAR analysis of Antagonists of the Kappa Opioid Receptor (KOR) using an Image-Based Assay - Set 3. [Related pubchem assays (depositor defined):AID1777, AID1785]; format: functional
# [5] = target: Delta-type opioid receptor (Homo sapiens, UniProt P41143); assay: SAR Analysis of Antagonists of the DOR Receptor using an Image-Based Assay - Set 3. [Related pubchem assays (depositor defined):AID1777, AID1785]; format: functional;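 also: U2OS cells expressing DOR1 and beta-arrestin GFP stimulated with 100 nM SNC80; imaging of GFP-tagged beta-arrestin moving into spots after receptor activation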
# Mu-type opioid receptor = Mu-type opioid receptor (Homo sapiens, UniProt P35372); assay: SAR Analysis of Antagonists of the MOR Receptor using an Image-Based Assay - Set 3. [Related pubchem assays (depositor defined):AID1777, AID1785, AID1786, AID1966, AID2133, AID2136, AID2284, AID2285, AID2420]; format: functional
# [6] = target: T3, Alkaline phosphatase, tissue-nonspecific isozyme (Homo sapiens, UniProt P05186); assay: potency against alkaline phosphatase TNAP – biochemical, luminescent, dose response, SAR follow-up (AID 1056)
# T3 sequence (P05186 whole entry): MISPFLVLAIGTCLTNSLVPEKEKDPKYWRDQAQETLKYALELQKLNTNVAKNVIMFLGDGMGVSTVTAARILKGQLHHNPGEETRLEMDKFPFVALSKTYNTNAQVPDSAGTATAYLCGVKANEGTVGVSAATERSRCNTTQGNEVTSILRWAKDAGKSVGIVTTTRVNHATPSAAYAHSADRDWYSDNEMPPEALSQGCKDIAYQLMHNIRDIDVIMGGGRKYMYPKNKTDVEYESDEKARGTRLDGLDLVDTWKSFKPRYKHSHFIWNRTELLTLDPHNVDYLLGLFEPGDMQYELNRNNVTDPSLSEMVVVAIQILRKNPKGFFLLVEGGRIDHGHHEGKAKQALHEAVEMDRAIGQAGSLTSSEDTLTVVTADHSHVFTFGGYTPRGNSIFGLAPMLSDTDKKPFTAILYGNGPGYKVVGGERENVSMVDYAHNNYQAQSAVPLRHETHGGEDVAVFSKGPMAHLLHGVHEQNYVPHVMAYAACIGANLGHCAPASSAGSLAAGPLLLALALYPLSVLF
# [7] = target: Alkaline phosphatase, placental type (Homo sapiens, UniProt P05187); assay: human placental alkaline phosphatase inhibition – biochemical, luminescence, confirmation (AID 1512); format: functional
# Alkaline phosphatase, placental type, sequence (P05187 whole entry): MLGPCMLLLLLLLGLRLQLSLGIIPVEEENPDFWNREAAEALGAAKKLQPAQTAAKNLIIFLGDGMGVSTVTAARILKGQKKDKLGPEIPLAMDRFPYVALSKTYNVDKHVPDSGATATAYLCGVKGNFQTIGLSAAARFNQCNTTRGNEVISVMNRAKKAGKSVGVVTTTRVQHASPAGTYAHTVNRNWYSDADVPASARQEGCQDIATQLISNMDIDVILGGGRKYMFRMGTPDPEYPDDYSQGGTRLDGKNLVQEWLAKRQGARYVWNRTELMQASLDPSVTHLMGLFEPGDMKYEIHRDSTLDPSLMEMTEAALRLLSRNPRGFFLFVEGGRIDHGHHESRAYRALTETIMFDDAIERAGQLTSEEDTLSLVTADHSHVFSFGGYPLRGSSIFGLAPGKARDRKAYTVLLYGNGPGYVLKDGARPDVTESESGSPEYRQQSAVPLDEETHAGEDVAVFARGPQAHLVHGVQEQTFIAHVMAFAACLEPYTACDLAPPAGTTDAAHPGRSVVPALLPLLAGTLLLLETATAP
# T2 sequence (P41145 whole entry): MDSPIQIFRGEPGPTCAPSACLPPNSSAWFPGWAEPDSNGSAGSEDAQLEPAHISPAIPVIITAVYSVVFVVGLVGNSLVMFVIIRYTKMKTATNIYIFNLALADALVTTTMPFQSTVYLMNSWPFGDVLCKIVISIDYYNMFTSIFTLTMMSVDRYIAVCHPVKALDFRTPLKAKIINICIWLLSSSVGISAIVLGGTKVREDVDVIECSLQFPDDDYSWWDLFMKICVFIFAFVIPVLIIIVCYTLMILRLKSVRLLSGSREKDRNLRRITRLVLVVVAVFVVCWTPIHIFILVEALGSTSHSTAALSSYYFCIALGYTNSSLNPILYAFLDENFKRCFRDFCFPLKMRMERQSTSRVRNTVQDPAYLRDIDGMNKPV
# T1 sequence (Q00975 whole entry): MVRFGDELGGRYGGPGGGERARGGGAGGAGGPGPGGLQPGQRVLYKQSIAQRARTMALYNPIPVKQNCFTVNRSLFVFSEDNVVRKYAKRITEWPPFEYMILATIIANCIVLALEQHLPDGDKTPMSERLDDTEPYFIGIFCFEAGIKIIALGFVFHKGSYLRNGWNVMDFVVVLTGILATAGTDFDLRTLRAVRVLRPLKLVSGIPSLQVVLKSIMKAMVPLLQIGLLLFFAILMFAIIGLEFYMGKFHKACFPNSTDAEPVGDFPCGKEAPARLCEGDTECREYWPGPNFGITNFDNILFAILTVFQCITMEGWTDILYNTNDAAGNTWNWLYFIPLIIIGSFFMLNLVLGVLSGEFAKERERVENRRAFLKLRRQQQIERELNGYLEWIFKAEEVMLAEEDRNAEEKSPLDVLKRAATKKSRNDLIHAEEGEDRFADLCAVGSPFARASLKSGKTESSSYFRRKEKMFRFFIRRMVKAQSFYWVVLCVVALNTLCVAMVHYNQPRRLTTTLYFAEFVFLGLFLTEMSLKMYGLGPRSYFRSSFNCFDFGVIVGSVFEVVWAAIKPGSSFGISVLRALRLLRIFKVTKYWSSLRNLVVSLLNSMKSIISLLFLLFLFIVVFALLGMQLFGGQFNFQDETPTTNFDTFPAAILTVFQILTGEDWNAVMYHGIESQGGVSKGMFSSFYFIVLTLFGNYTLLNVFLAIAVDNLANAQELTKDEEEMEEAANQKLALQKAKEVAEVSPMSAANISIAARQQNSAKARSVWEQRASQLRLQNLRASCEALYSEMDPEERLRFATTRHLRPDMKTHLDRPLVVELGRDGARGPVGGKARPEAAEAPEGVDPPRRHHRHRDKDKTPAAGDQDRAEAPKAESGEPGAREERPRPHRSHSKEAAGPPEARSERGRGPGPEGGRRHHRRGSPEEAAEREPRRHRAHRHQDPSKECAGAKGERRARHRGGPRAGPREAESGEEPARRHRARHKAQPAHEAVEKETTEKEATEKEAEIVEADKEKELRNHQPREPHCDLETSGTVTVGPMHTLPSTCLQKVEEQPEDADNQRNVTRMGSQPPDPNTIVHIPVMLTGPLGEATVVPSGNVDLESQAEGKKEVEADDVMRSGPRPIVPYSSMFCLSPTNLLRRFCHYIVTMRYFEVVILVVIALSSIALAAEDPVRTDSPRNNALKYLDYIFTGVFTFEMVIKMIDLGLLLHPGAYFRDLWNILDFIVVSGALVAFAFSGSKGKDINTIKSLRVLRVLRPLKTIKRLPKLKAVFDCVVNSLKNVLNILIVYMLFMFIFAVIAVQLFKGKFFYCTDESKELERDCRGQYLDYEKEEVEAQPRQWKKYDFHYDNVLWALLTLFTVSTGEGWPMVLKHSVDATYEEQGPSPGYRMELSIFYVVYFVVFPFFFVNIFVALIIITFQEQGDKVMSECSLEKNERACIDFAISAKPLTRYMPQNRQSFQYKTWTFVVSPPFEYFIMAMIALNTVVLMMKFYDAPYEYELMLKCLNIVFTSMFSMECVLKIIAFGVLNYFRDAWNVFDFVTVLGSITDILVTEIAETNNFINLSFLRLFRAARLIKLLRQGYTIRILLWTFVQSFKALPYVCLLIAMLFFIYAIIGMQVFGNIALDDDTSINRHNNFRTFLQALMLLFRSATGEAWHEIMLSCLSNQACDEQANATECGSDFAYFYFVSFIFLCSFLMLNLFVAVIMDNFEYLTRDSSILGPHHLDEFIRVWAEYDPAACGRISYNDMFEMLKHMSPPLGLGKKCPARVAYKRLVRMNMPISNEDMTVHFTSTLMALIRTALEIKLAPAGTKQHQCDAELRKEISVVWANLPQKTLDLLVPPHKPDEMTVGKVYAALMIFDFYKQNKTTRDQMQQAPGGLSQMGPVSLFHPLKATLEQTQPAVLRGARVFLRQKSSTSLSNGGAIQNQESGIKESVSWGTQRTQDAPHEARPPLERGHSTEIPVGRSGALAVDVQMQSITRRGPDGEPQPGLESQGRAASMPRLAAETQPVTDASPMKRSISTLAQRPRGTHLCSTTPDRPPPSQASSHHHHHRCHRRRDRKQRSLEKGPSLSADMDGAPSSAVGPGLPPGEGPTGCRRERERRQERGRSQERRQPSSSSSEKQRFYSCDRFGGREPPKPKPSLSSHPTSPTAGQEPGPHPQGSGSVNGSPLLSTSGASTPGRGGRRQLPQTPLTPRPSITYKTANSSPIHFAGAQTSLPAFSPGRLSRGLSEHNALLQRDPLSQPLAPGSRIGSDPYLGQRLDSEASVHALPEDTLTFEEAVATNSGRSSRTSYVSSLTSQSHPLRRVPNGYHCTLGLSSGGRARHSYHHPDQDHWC
# T1 sequence (Q02410 whole entry): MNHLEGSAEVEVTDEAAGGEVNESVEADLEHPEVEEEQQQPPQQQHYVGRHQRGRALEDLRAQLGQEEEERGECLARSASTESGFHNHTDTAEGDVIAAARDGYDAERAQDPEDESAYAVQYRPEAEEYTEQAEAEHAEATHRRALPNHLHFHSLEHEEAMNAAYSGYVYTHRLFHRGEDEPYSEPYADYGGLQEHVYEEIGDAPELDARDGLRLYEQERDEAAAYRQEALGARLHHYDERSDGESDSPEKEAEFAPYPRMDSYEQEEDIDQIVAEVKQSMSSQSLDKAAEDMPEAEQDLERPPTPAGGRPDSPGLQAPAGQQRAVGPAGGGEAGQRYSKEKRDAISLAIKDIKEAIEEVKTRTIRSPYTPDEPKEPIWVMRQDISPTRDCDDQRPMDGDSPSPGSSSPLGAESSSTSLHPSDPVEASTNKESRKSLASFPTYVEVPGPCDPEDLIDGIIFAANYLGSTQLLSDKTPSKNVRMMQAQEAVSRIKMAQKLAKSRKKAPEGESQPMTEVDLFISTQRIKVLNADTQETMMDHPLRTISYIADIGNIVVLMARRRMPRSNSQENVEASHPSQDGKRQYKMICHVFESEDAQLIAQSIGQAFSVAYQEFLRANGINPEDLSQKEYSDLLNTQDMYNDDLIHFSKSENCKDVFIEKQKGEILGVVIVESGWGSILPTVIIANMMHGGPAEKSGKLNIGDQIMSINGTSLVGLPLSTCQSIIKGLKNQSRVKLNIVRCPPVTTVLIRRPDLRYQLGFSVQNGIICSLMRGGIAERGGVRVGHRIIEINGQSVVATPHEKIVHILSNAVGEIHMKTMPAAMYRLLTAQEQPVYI
# Mu-type opioid receptor, sequence (P35372 whole entry): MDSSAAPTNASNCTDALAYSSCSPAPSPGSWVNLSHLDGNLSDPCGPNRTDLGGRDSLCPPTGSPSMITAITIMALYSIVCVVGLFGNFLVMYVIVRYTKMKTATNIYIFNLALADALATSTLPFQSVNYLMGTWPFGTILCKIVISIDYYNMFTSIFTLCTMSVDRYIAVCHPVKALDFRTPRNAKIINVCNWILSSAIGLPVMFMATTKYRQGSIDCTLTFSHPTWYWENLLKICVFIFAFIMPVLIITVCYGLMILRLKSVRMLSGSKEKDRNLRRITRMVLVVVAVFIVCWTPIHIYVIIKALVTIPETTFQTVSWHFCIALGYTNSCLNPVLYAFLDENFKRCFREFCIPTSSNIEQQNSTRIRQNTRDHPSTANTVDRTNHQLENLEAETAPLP
# Delta-type opioid receptor, sequence (P41143 whole entry): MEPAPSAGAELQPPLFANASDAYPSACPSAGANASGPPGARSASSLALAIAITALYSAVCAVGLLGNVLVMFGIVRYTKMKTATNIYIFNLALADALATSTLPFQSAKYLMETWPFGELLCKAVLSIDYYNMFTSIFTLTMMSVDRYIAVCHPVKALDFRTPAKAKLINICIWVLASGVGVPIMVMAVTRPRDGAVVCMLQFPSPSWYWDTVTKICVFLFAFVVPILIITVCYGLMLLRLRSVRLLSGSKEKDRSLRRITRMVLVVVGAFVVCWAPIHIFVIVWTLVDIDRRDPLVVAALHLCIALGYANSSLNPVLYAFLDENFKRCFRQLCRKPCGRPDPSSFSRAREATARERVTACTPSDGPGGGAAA
structure (smiles),measurement,setting,value
Cc1c(C)c2c(OCC(=O)Nc3cccnc3)cc3c(c2oc1=O)CCC(C)(C)O3,IC50,[1],> 50 µM (inactive)
same,IC50,[2],12.1 µM (active)
CN(C)C=O.O=C(COC(=O)C12CC3CC(CC(Br)(C3)C1)C2)Nc1cccc(S(=O)(=O)N2CCOCC2)c1,EC50,T-cell,4.6 µM (active)
COc1ccc(CN(CCNC(=O)c2ccc(CNS(=O)(=O)c3ccc(C)cc3)cc2)C(C)C)cc1,IC50,[3],2.29 µM (active)
same,IC50,[4],0.532 µM (active)
same,IC50,[5],> 32 µM (inactive)
same,IC50,Mu-type opioid receptor,> 32 µM (inactive)
CCOC(=O)NC1(C(Cl)(Cl)Cl)Oc2ccc(Cl)cc2O1 (centres undefined),IC50,[6],> 100 µM (inactive)
same,IC50,[7],55.5 µM (active)
